Results: US9487486B2, “Derivatives of nicotinic acid N-oxide, their preparation and their use as inhibitors of enzyme 3-hydroxyanthranilate-3, 4-dioxygenase” (UNIVERSITY OF MARYLAND, BALTIMORE, priority 2011, dated 2016)

Key:
[1] = target: T1, 3-hydroxyanthranilate-3,4-dioxygenase (3HAO) (Rattus norvegicus, UniProt P46953); assay: In vitro 3HAO inhibition in rat brain homogenates; format: biochemical
T1 construct: One hundred μl of control Sprague Dawley rat brain homogenate; from tissue; host or cells: Sprague Dawley rat brain homogenate
T1 sequence (P46953 1-286): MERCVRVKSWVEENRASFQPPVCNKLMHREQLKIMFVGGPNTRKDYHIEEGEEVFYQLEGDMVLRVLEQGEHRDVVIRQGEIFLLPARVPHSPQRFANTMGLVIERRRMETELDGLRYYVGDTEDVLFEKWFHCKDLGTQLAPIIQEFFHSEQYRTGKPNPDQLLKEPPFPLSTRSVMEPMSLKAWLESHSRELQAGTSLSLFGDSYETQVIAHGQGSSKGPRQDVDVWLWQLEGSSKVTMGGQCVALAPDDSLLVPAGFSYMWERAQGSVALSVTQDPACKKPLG
Experimental: (§1) The following procedure has been carried out for all the six compounds prepared according to the Examples 1-6 above.
(§2) One hundred μl of control Sprague Dawley rat brain homogenate (1/10 dilution in bidistilled water) were further diluted (1/2, 5 v/v) with a 5 mM MES/NaOH buffer (pH 6.5) and incubated at 37° C. for 1 h in the presence of the radiolabeled substrate[14C]-3-hydroxyanthranilic acid (3.7 µM), ferrous ammonium sulphate (150 µM), ascorbic acid (0.01%). 20 μl of a solution (10 μM) of a compound of the invention were added prior to the addition of the radiolabeled substrate, for a total volume of 200 μl. The enzymatic reaction was stopped by adding 50 μl of 6% perchloric acid. The mixture was centrifuged for 5 min a 12.000 g and the supernatant was applied to a column packed with a cation-exchange resin (Dowex 50W, 0.5×2.0 cm; protonated form). [14C]-quinolinic acid formed by enzymatic reaction was eluted with 1 ml of distilled water. The eluate was added to scintillation liquid (Beckman, Ultima Gold) and radioactivity was measured with a is beta-counter.
(§3) The same procedure has been repeated by adding 20 μl of a solution (100 μM) of a compound of the invention and repeated by adding 20 μl of a solution (1000 μM) of a compound of the invention.

[2] = target: T2, 3-hydroxyanthranilate-3,4-dioxygenase (3HAO) (Homo sapiens, UniProt P46952); assay: In vitro 3HAO inhibition in human brain homogenates; format: biochemical
T2 construct: One hundred μl of healthy human brain homogenate; from tissue; host or cells: healthy human brain homogenate
T2 sequence (P46952 1-286): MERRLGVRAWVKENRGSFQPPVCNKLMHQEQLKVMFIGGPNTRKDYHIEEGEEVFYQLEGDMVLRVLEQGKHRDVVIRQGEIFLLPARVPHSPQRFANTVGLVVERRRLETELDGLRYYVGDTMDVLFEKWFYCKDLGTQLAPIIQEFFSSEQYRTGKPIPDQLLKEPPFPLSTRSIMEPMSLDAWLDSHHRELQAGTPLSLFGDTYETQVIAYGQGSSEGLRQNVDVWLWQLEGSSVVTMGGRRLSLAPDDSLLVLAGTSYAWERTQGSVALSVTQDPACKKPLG
Experimental: as §1
as §2, with “of healthy human” for “of control Sprague Dawley rat”, “(3.7 μM),” for “(3.7 µM),”, “(150 μM),” for “(150 µM),”, “substrate, to” for “substrate, for”, “a final” for “a total”, “a” for “a is”
as §3

[3] = tested on: de novo production of QUIN in QUIN-lesioned rat brain; assay: In vivo de novo production of QUIN from 3H-kynurenine in QUIN-lesioned rat striatum; conditions: 5 mM I3 co-infused intrastriatally with 3H-kynurenine, 7 days after lesion, 2 h, FIG. 1
Experimental: Quinolinic acid lesions in the rat striatum were made as described by Schwarcz et al. (1983), using 300 nmol quinolinic acid per injection. In vivo assays of I3 in the lesioned striatum were performed 7 days later. [Schwarcz R, Whetsell W O Jr, Mangano R M (1983) Quinolinic acid: an endogenous metabolite that produces axon-sparing lesions in rat brain. Science 219:316-8.]
Intrastriatal injection of 3H-kynurenine: two months-old male Sprague-Dawley rats were anesthetized with chloral hydrate (360 mg/kg, i.p.) and mounted in a David Kopf stereotaxic apparatus (Tujunga, Calif.). Through a small burr hole in the skull, […] of 3H-kynurenine [in phosphate-buffered saline (PBS), pH 7.4] was infused (6 μL over 10 min) intrastriatally. 3H-kynurenine was infused in the absence or presence of 5 mM I3. The injection coordinates were: AP: 1.0 mm anterior to bregma, L: 2.6 mm from the midline, V: 4.8 mm below dura. Animals were euthanized 2 h later and the striatum was dissected out, frozen on dry ice and stored at −80° C. Subsequently, the tissue was processed for the determination of tritiated neuroactive products of KP metabolism. […]
Analysis of 3H-quinolinic acid: the analysis of tritiated quinolinic acid derived from 3H-kynurenine was performed essentially as described by Guidetti et al. (1995). […] Tritiated quinolinic acid was detected radiometrically (Beta-Ram; IN/US Systems, Tampa, Fla.). […]

[4] = Chemical stability over time in phosphate buffer (HPLC); format: physicochemical; conditions: phosphate buffer pH 7.5; 10 and 100 μM; 37° C.; 24 h; FIG. 2
Experimental: Compound I3 was dissolved in a phosphate buffer at pH 7.5 at two different concentrations (10 and 100 μM). The resulting solutions were incubated at 37° C. for 24 h.
Chromatographic analyses were performed with a HPLC system (Shimadzu Corp., Kyoto, Japan), endowed with a UV/VIS detector, and the samples were eluted with a mixture containing methanol (0.05% TFA)/water (0.25% TFA)=20/80 at a flow rate of 1 ml/min.

[5] = 1000 μM compound, rat brain homogenate (I4-I6 table)
[6] = 1000 μM compound, human brain homogenate (I4-I6 table)
[7] = 10 μM compound, rat brain homogenate
[8] = 100 μM compound, rat brain homogenate
[9] = 1000 μM compound, rat brain homogenate (I1-I3 table)
[10] = 10 μM compound, human brain homogenate
[11] = 100 μM compound, human brain homogenate
[12] = 1000 μM compound, human brain homogenate (I1-I3 table)

SMILES | % inibition of 3HAO (r) [1, 5] | % inibition of 3HAO (h) [2, 6] | % inibition of 3HAO (r) [1, 7] | % inibition of 3HAO (r) [1, 8] | % inibition of 3HAO (r) [1, 9] | % inibition of 3HAO (h) [2, 10] | % inibition of 3HAO (h) [2, 11] | % inibition of 3HAO (h) [2, 12] | Effect on brain level of QUIN (de novo 3H-quinolinic acid production) [3] | Chemical stability (HPLC) [4]
Cc1ccc(C(N)=O)c(N)[n+]1[O-] [Compound I4, 2-amino-6-methylnicotinamide N-oxide] | 15% | 23% |  |  |  |  |  |  |  | 
Nc1c(C(=O)O)ccc[n+]1[O-] [Compound I1, 2-aminonicotinic acid N-oxide] |  |  | 49% | 90% | 97% | 66% | 93% | 96% |  | 
Cc1ccc(C(=O)O)c(N)[n+]1[O-] [Compound I3, 2-amino-6-methylnicotinic acid N-oxide] |  |  | 78% | 97% | 99% | 80% | 100% | 100% | able to block the abnormal de novo production of QUIN under excitotoxic conditions | complete chemical stability

Continued, in another order:

% inibition of 3HAO (r) [1, 5] | % inibition of 3HAO (h) [2, 6] | % inibition of 3HAO (r) [1, 7] | % inibition of 3HAO (r) [1, 8] | % inibition of 3HAO (r) [1, 9] | % inibition of 3HAO (h) [2, 10] | % inibition of 3HAO (h) [2, 11] | % inibition of 3HAO (h) [2, 12] | SMILES | Effect on brain level of QUIN (de novo 3H-quinolinic acid production) [3] | Chemical stability (HPLC) [4]
70% | 60% |  |  |  |  |  |  | CC(C)c1cc(C(C)C)[n+]([O-])c(N)c1C(=O)O [Compound I6, 2-amino-4,6-diisopropylnicotinic acid N-oxide] |  | 
80% | 70% |  |  |  |  |  |  | Cc1cc(-c2ccccc2)c(C(=O)O)c(N)[n+]1[O-] [Compound I5, 2-amino-4-phenyl-6-methylnicotinic acid N-oxide] |  | 
 |  | 22% | 76% | 99% | 42% | 100% | 100% | Nc1c(C(=O)O)ccc(Cl)[n+]1[O-] [Compound I2, 2-amino-6-chloronicotinic acid N-oxide] |  | 
